According to patent publication US20230355646A1, “AUTOPHAGY ACTIVATOR” (Resonac Corporation, priority 2020, published 2023):

System: ATG5 gene
Assay: ATG5 gene expression promoting effect in human neuroblastoma SH-SY5Y in the presence of amyloid β
Format: cell-based
Experimental: In the presence of an autophagy activator, the expression levels of the LC3 gene, ATG5 gene, and ATG7 gene in human neuroblastoma (SH-SY5Y; obtained from ATCC) were measured by the following test method, and the effect of promoting the expression of the LC3 gene, ATG5 gene, and ATG7 gene by an autophagy activator was evaluated.
In the following examples and comparative examples, tests were performed by adding amyloid β, which is known to cause a decrease in autophagy in nerve cells, to each medium.
SH-SY5Y cells were prepared at a seeding density of 10000 cells/cm^2 and cultured for 24 hours in D-MEM medium/Ham's F-12 medium (manufactured by Sigma-Aldrich) to which 10% fetal bovine serum (manufactured by MP Biomedicals) was added. Next, in Example 15, the methyl hesperidin DMSO solution was added to the medium such that the final concentration of methyl hesperidin was 10^−3% (V/V) and the final concentration of DMSO was 0.1% (V/V). […]
Then, using Nucleospin (registered trademark) RNA kit (manufactured by Takara Bio Inc.), RNA was extracted from SH-SY5Y cells in each example, and cDNA was synthesized from the obtained RNA. Next, using this cDNA as a template, by quantitative real-time PCR, the expression level of each gene was quantified using primers (manufactured by Takara Bio Inc.) specific to the LC3 gene, ATG5 gene, and ATG7 gene, respectively. […]

COc1ccc([C@@H]2CC(=O)c3c(O)cc(O[C@@H]4O[C@H](CO[C@@H]5O[C@@H](C)[C@H](O)[C@@H](O)[C@H]5O)[C@@H](O)[C@H](O)[C@H]4O)cc3O2)cc1O [Comparative Example 2, hesperidin]
expression level of the ATG5 gene (in words) (SH-SY5Y cells with amyloid β, compared to DMSO and amyloid β of Comparative Example 5): increased | Relative gene expression level ATG5 (SH-SY5Y cells, 20 μM amyloid β present, 10^−2% (V/V) methyl hesperidin or hesperidin, additional ingredient where in the example, 48 hours, Reference Example 3 = 1.00): 3.29
